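Dose response: 5 concentrations. Exposure: 48 h. Format: 96-well plates. Endpoint: linear interpolation; highest concentration if not reached. GI50 = concentration required for 50% inhibition of growth. The concentration for full growth arrest is given as TGI.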
Tests used:
Assay in all cases: DTP human tumour cell line panel, 48 h
HT29 colon = tested on: HT29 colon
SF-268 CNS = tested on: SF-268 CNS
COLO 205 colon = tested on: COLO 205 colon
K-562 leukemia = tested on: K-562 leukemia
RPMI-8226 leukemia = tested on: RPMI-8226 leukemia
UACC-257 melanoma = tested on: UACC-257 melanoma
HCT-15 colon = tested on: HCT-15 colon
OVCAR-5 ovarian = tested on: OVCAR-5 ovarian
HS 578T breast = tested on: HS 578T breast
LOX IMVI melanoma = tested on: LOX IMVI melanoma

Row | SMILES | GI50 (HT29 colon) [µM] | TGI (HT29 colon) [µM] | GI50 (SF-268 CNS) [µM] | TGI (SF-268 CNS) [µM] | GI50 (COLO 205 colon) [µM] | TGI (COLO 205 colon) [µM] | GI50 (K-562 leukemia) [µM] | TGI (K-562 leukemia) [µM] | GI50 (RPMI-8226 leukemia) [µM] | TGI (RPMI-8226 leukemia) [µM] | GI50 (UACC-257 melanoma) [µM] | TGI (UACC-257 melanoma) [µM] | GI50 (HCT-15 colon) [µM] | TGI (HCT-15 colon) [µM] | GI50 (OVCAR-5 ovarian) [µM] | TGI (OVCAR-5 ovarian) [µM] | GI50 (HS 578T breast) [µM] | TGI (HS 578T breast) [µM] | GI50 (LOX IMVI melanoma) [µM] | TGI (LOX IMVI melanoma) [µM]
1 | COc1cc(/C=C/C(=O)c2cc(F)c(Cl)cc2Cl)cc(OC)c1OC | 15.2 | 45 | 68.9 | > 100 | 14.7 | 45.5 | 11.4 | 27.7 | 15.2 | 52.9 | 42 | > 100 | 19.8 | 54.4 | 25.2 | > 100 | 28.7 | > 100 | 25.1 | 91.2
2 | CC[N+](CC)=c1ccc2nc3c(cc(NCc4ccccc4)c4ccccc43)oc-2c1 | 0.189 | 0.773 | 0.307 | 1.51 | 0.153 | 0.311 | 0.121 | 0.724 | 0.0949 | 0.539 | 0.159 | 0.387 | 0.378 | 2.29 | 0.681 | 2.19 | 0.522 | 3.27 | 0.127 | 0.299
3 | NC(=O)c1[nH]nc(C2OC(CO)C(O)C2O)c1O (centres undefined) | – | 3420 | – | 3560 | – | 1660 | – | 2290 | – | 1830 | – | > 5000 | – | 838 | – | 2830 | – | 1620 | – | 309
4 | Cc1cc(S(=O)(=O)Nc2nc3ccsc3c(=O)n2Cc2ccco2)c(S)cc1Cl | > 100 | > 100 | 99 | > 100 | > 100 | > 100 | 25.6 | > 100 | 59 | > 100 | > 100 | > 100 | > 100 | > 100 | > 100 | > 100 | 81 | > 100 | > 100 | > 100
5 | COc1cc2cc(Oc3ccc(NC(=O)Nc4ccccc4)cc3)c(C)nc2cc1OCCN1CCCCC1 | 3.32 | 9.35 | 5.88 | 12.6 | 6.25 | 13.1 | 1.05 | 3.7 | 3.52 | 10.8 | 6.46 | 12.4 | 4.18 | 9.14 | 6 | 11.5 | 5.79 | 14.2 | 5.38 | 10.1
6 | O=C1C=CC(=O)C1(Br)Br | – | 32.7 | – | 37.9 | – | 24.1 | – | > 95.1 | – | 20.1 | – | 30.7 | – | 17.3 | – | 25.3 | – | 50.1 | – | 27.2
7 | CN(C)CCNC(=O)c1cccc2cc3ccccc3nc12 | 0.774 | 3.15 | 1.65 | 8.18 | 0.779 | 3.55 | 1.88 | 18.1 | 1.89 | > 25.2 | 1.6 | 3.55 | 1.25 | – | 2.27 | > 24.3 | 1.6 | 10.2 | 0.802 | 3.48
8 | CS(=O)(=O)N1CCN(Cc2cc3nc(-c4cccc5[nH]ncc45)nc(N4CCOCC4)c3s2)CC1 (tested in a mixture with another compound) | 0.074 | – | 0.152 | – | 0.182 | 0.649 | 0.349 | – | 3.48 | > 100 | 0.0608 | 0.42 | 0.207 | > 100 | 0.134 | – | 0.0496 | 0.612 | 0.169 | –
9 | Cc1ccc(N=C2CSc3nnc(-c4csc5c4CCCC5)n3N2)cc1 | 0.175 | > 50 | 0.561 | > 50 | 0.191 | > 50 | 0.156 | > 50 | 0.203 | > 50 | > 50 | > 50 | 0.227 | > 50 | 0.932 | > 50 | 0.168 | 40.2 | 0.302 | > 50
10 | O=C1c2cccnc2-c2nc(/C=C/c3ccccc3)cc3c2c1nc1ccccc13 | 1.87 | 3.97 | 2.24 | > 21.2 | 3.74 | 16.7 | 1.43 | 9.1 | 1.2 | 5.12 | 2.35 | 6.3 | 0.844 | 2.1 | 11.8 | 25.4 | 3.74 | 18 | 2.76 | 6.92
11 | COc1c2ccccc2c(O)c2c(=O)c(C(=O)O)cn(C)c12 | > 100 | > 100 | > 100 | > 100 | > 100 | > 100 | > 100 | > 100 | > 100 | > 100 | > 100 | > 100 | > 100 | > 100 | > 100 | > 100 | > 100 | > 100 | > 100 | > 100
